From PubChem BioAssay (NCI)
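Growth conditions: 96-well plates. Treatment: test compound, 48 hours, 5 concentrations. Analysis: linear interpolation between bracketing concentrations; unreached endpoints set to highest concentration. Here, GI50 denotes the concentration required for 50% inhibition of growth. Definition used: TGI = concentration required for complete inhibition of growth.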

What was measured:
Test in all cases: growth of human tumour cells (NCI), 48 h
HOP-62 NSCLC = system: HOP-62 NSCLC
NCI/ADR-RES ovarian = system: NCI/ADR-RES ovarian
NCI-H23 lung = system: NCI-H23 lung
PC-3 prostate = system: PC-3 prostate
OVCAR-8 ovarian = system: OVCAR-8 ovarian
OVCAR-3 ovarian = system: OVCAR-3 ovarian
OVCAR-4 ovarian = system: OVCAR-4 ovarian
SR leukemia = system: SR leukemia
HCT-116 colon = system: HCT-116 colon
CCRF-CEM leukemia = system: CCRF-CEM leukemia
U251 CNS = system: U251 CNS
SK-MEL-5 melanoma = system: SK-MEL-5 melanoma
MCF7 breast = system: MCF7 breast
SNB-19 CNS = system: SNB-19 CNS
A549 NSCLC = system: A549 NSCLC
RXF 393 renal = system: RXF 393 renal
HOP-92 NSCLC = system: HOP-92 NSCLC
BT-549 breast = system: BT-549 breast
MALME-3M melanoma = system: MALME-3M melanoma
NCI-H460 lung = system: NCI-H460 lung
IGROV1 ovarian = system: IGROV1 ovarian
NCI-H522 lung = system: NCI-H522 lung
A498 renal = system: A498 renal
KM12 colon = system: KM12 colon
COLO 205 colon = system: COLO 205 colon
ACHN renal = system: ACHN renal
HCC-2998 colon = system: HCC-2998 colon
HCT-15 colon = system: HCT-15 colon
MDA-MB-435 = system: MDA-MB-435

Compound C=C1C(=O)O[C@H]2[C@H]1CC/C(Cn1cc(Cn3ccc4cc(Cl)ccc43)nn1)=C\CC[C@@]1(C)O[C@@H]21 has a GI50 (HOP-62 NSCLC) of 4.9 µM, a TGI (HOP-62 NSCLC) of 20.1 µM and a GI50 (NCI/ADR-RES ovarian) of 2.54 µM. It also gave a TGI (NCI/ADR-RES ovarian) of 9.09 µM, a GI50 (NCI-H23 lung) of 1.99 µM and a TGI (NCI-H23 lung) of 4.46 µM. The GI50 (PC-3 prostate) was 1.3 µM, the TGI (PC-3 prostate) was 2.87 µM and the GI50 (OVCAR-8 ovarian) was 1.66 µM. The TGI (OVCAR-8 ovarian) was 3.57 µM, the GI50 (OVCAR-3 ovarian) was 1.48 µM and the TGI (OVCAR-3 ovarian) was 2.83 µM. The GI50 (OVCAR-4 ovarian) was 1.53 µM, the TGI (OVCAR-4 ovarian) was 3.02 µM and the GI50 (SR leukemia) was 0.279 µM. For the same compound, the TGI (SR leukemia) was 1.25 µM, the GI50 (HCT-116 colon) was 1.5 µM and the TGI (HCT-116 colon) was 3.12 µM. The GI50 (CCRF-CEM leukemia) was 0.338 µM, the TGI (CCRF-CEM leukemia) was 1.18 µM and the GI50 (U251 CNS) was 1.69 µM. It also gave a TGI (U251 CNS) of 3.35 µM, a GI50 (SK-MEL-5 melanoma) of 1.73 µM and a TGI (SK-MEL-5 melanoma) of 3.32 µM. For the same compound, the GI50 (MCF7 breast) was 1.25 µM, the TGI (MCF7 breast) was 3.02 µM and the GI50 (SNB-19 CNS) was 1.97 µM. For the same compound, the TGI (SNB-19 CNS) was 4.49 µM, the GI50 (A549 NSCLC) was 10.2 µM and the TGI (A549 NSCLC) was 24.8 µM. The GI50 (RXF 393 renal) was 1.17 µM, the TGI (RXF 393 renal) was 2.46 µM and the GI50 (HOP-92 NSCLC) was 0.489 µM. For the same compound, the TGI (HOP-92 NSCLC) was 1.74 µM, the GI50 (BT-549 breast) was 1.61 µM and the TGI (BT-549 breast) was 3.3 µM. The GI50 (MALME-3M melanoma) was 1.58 µM, the TGI (MALME-3M melanoma) was 3.13 µM and the GI50 (NCI-H460 lung) was 3.27 µM. For the same compound, the TGI (NCI-H460 lung) was 10.3 µM, the GI50 (IGROV1 ovarian) was 1.42 µM and the TGI (IGROV1 ovarian) was 2.9 µM. The GI50 (NCI-H522 lung) was 1.26 µM, the TGI (NCI-H522 lung) was 2.87 µM and the GI50 (A498 renal) was 3.39 µM. The TGI (A498 renal) was 11.7 µM, the GI50 (KM12 colon) was 2.01 µM and the TGI (KM12 colon) was 4.24 µM. It also gave a GI50 (COLO 205 colon) of 1.69 µM, a TGI (COLO 205 colon) of 3.5 µM and a GI50 (ACHN renal) of 1.24 µM. The TGI (ACHN renal) was 2.5 µM, the GI50 (HCC-2998 colon) was 1.98 µM and the TGI (HCC-2998 colon) was 3.92 µM. It also gave a GI50 (HCT-15 colon) of 1.14 µM, a TGI (HCT-15 colon) of 2.66 µM and a GI50 (MDA-MB-435) of 1.56 µM.
